# Test results as given in patent publication US20070134261A1, “Effectors of innate immunity” (priority 2001, published 2007).
# Where “and” joins values, the source holds several entries; their conditions need not be identical. Identical values can stand only once.
# System: human A549 epithelial cells
# Assay: Resgen Human cDNA arrays (PRHU03-S3) of A549 cells treated with peptide (Tables 21-26)
# Settings: 50 μg/ml, 4 h
structure (smiles),measurement,setting,value
CC[C@H](C)[C@H](N)C(=O)N[C@@H](CC(C)C)C(=O)N1CCC[C@H]1C(=O)N[C@@H](Cc1c[nH]c2ccccc12)C(=O)N[C@@H](CCCCN)C(=O)N[C@@H](Cc1c[nH]c2ccccc12)C(=O)N1CCC[C@H]1C(=O)N[C@@H](Cc1c[nH]c2ccccc12)C(=O)N[C@@H](Cc1c[nH]c2ccccc12)C(=O)N1CCC[C@H]1C(=O)N[C@@H](Cc1c[nH]c2ccccc12)C(=O)N[C@@H](CCCNC(=N)N)C(=O)N[C@@H](CCCNC(=N)N)C(N)=O [SEQ ID NO: 2],"Ratio Peptide:Unstimulated, regulator of G-protein signaling 20",AI264190,48
same,"Ratio Peptide:Unstimulated, small inducible cytokine subfamily A (Cys—Cys), member 20",AI285199,0.19
same,"Ratio Peptide:Unstimulated, TLR 1",AI339155,0.35
same,"Ratio Peptide:Unstimulated, disintegrin-like and metalloprotease with thrombospondin type 1 motif, 5",AI375048,0.39
same,"Ratio Peptide:Unstimulated, killer cell lectin-like receptor subfamily G, member 1",AI433079,2.3
same,"Ratio Peptide:Unstimulated, apoptosis antagonizing transcription factor",AI439571,0.28
same,"Ratio Peptide:Unstimulated, T-cell receptor interacting molecule",AI453185,0.41
same,"Ratio Peptide:Unstimulated, TGFB inducible early growth response 2","AI473938, listed as ID 2",2.4 and 2.38
same,"Ratio Peptide:Unstimulated, MAP kinase kinase kinase 1",AI538525,0.61
same,"Ratio Peptide:Unstimulated, protocadherin 12",AI652584,14.8
same,"Ratio Peptide:Unstimulated, protein tyrosine phosphatase, non-receptor type 18",AI668897,3.2
same,"Ratio Peptide:Unstimulated, Fc fragment of IgE, high affinity I, receptor for; alpha polypeptide",AI676097,0.43
same,"Ratio Peptide:Unstimulated, G protein-coupled receptor 4",AI719098,3.7
same,"Ratio Peptide:Unstimulated, peroxisome proliferative activated receptor, alpha",AI739498,0.38
same,"Ratio Peptide:Unstimulated, cadherin 12, type 2 (N-cadherin 2)",AI740827,13
same,"Ratio Peptide:Unstimulated, complement component C1q receptor",AI761788,0.46
same,"Ratio Peptide:Unstimulated, small inducible cytokine subfamily B (Cys-X-Cys), member 6 (granulocyte chemotactic protein 2)",AI889554,0.11
same,"Ratio Peptide:Unstimulated, small inducible cytokine subfamily A (Cys—Cys), member 21",AI922341,3.9
same,"Ratio Peptide:Unstimulated, protein tyrosine phosphatase, receptor type, H",AI924306,0.11
same,"Ratio Peptide:Unstimulated, tyrosine kinase, non-receptor, 1",AI936324,7.8
same,"Ratio Peptide:Unstimulated, MAP kinase 12",AI936909,2.1
same,"Ratio Peptide:Unstimulated, G protein-coupled receptor 17",AI953187,0.32
same,"Ratio Peptide:Unstimulated, apoptosis inhibitor 5",AI972925,2.8
same,"Ratio Peptide:Unstimulated, IL-17 R",AW029299,2.1
same,"Ratio Peptide:Unstimulated, MAP kinase kinase kinase 6",AW084649,0.37
same,Ratio Peptide:Unstimulated,C-type lectin-like receptor-2 (H70491),2.09
same,Ratio Peptide:Unstimulated,CCR6 (N57964),4.51
same,Ratio Peptide:Unstimulated,CD31 (PECAM) (R22412),2.71
same,"Ratio Peptide:Unstimulated, selectin L (lymphocyte adhesion molecule 1)",H00662,0.03
same,"Ratio Peptide:Unstimulated, MAP kinase kinase kinase 10",H01340,1.23
same,"Ratio Peptide:Unstimulated, protein tyrosine phosphatase, non-receptor type 21",H03504,0.94
same,"Ratio Peptide:Unstimulated, MAP kinase kinase 6","H07920, listed as ID 2",18 and 17.83
same,"Ratio Peptide:Unstimulated, disintegrin and metalloproteinase domain 23",H11006,1.9
same,"Ratio Peptide:Unstimulated, vascular cell adhesion molecule 1",H16591,0.20
same,"Ratio Peptide:Unstimulated, leukocyte immunoglobulin-like receptor, subfamily B",H54023,0.35
same,"Ratio Peptide:Unstimulated, disintegrin and metalloproteinase domain 9",H59231,1.1
same,"Ratio Peptide:Unstimulated, TGF beta receptor III",H62473,0.91
same,"Ratio Peptide:Unstimulated, regulator of G-protein signaling 13",H70047,0.54
same,"Ratio Peptide:Unstimulated, C-type lectin-like receptor-2",H70491,2.1
same,"Ratio Peptide:Unstimulated, vasoactive intestinal peptide receptor 1",H73241,0.43
same,"Ratio Peptide:Unstimulated, protein tyrosine phosphatase, receptor type, C",H74265,0.44
same,"Ratio Peptide:Unstimulated, protein tyrosine phosphatase, receptor type, A",H82419,4.0
same,"Ratio Peptide:Unstimulated, G protein-coupled receptor 75",H84878,5.2
same,"Ratio Peptide:Unstimulated, cadherin 1, type 1, E-cadherin epithelial",H97778,8.1
same,"Ratio Peptide:Unstimulated, TNF R superfamily, member 5 (CD40LR)","H98636, listed as ID 2",3.0 and 2.98
same,Ratio Peptide:Unstimulated,IL-11 Rα (AA454657),2.39
same,Ratio Peptide:Unstimulated,IL-17 R (AW029299),2.05
same,Ratio Peptide:Unstimulated,MAP kinase 9 (AA157286),0.57
same,"Ratio Peptide:Unstimulated, TLR 7",N30597,0.13
same,"Ratio Peptide:Unstimulated, CD36",N39161,8.2
same,"Ratio Peptide:Unstimulated, TLR 5",N41021,0.12
same,"Ratio Peptide:Unstimulated, protein tyrosine phosphatase, receptor type, f polypeptide (PTPRF), interacting protein (liprin), α1",N49751,0.43
same,"Ratio Peptide:Unstimulated, IL-2 receptor, gamma (severe combined immunodeficiency)",N54821,0.30
same,"Ratio Peptide:Unstimulated, adenosine A2a R",N57553,3.1
same,"Ratio Peptide:Unstimulated, CCR6",N57964,4.5
same,"Ratio Peptide:Unstimulated, G protein-coupled receptor 55",N58443,19
same,"Ratio Peptide:Unstimulated, G protein-coupled receptor 85",N62306,6.8
same,"Ratio Peptide:Unstimulated, leukocyte immunoglobulin-like receptor, subfamily A",N63398,0.44
same,"Ratio Peptide:Unstimulated, receptor tyrosine kinase-like orphan receptor 2",N94921,7.3
same,"Ratio Peptide:Unstimulated, CD31",R22412,2.7
same,"Ratio Peptide:Unstimulated, IK cytokine, down-regulator of HLA II","R39227, listed as ID 2",3.1 and 3.11
same,"Ratio Peptide:Unstimulated, cell adhesion molecule",R40400,4.0
same,"Ratio Peptide:Unstimulated, cadherin 13, H-cadherin (heart)",R41787,0.37
same,"Ratio Peptide:Unstimulated, diphtheria toxin receptor (heparin-binding epidermal growth factor-like growth factor)",R45640,0.49
same,"Ratio Peptide:Unstimulated, protein tyrosine phosphatase, receptor type, T",R52794,1.2
same,"Ratio Peptide:Unstimulated, PDGF R beta polypeptide",R56211,2.5
same,"Ratio Peptide:Unstimulated, interleukin enhancer binding factor 1",R56553,2.7
same,"Ratio Peptide:Unstimulated, Fc fragment of IgG, low affinity IIb, receptor for (CD32)",R68106,0.27
same,"Ratio Peptide:Unstimulated, MAP kinase kinase kinase 11",R80779,0.65
same,"Ratio Peptide:Unstimulated, protocadherin gamma subfamily C, 3",R89615,3.0
same,"Ratio Peptide:Unstimulated, G protein-coupled receptor",R91916,1.84
same,"Ratio Peptide:Unstimulated, TNF receptor-associated factor 2",T55353,1.22
same,"Ratio Peptide:Unstimulated, TLR 2",T57791,0.52
same,"Ratio Peptide:Unstimulated, caspase 1, apoptosis-related cysteine protease (interleukin 1, beta, convertase)",T95052,0.44
same,"Ratio Peptide:Unstimulated, BMP R type IA",W15390,1.9
same,"Ratio Peptide:Unstimulated, caspase 6, apoptosis-related cysteine protease",W45688,0.7
same,"Ratio Peptide:Unstimulated, MAP kinase kinase kinase 8",W56266,1.52
same,"Ratio Peptide:Unstimulated, integrin, beta 8",W56754,0.10
same,"Ratio Peptide:Unstimulated, MAP kinase kinase kinase 14",W61116,0.34
same,"Ratio Peptide:Unstimulated, integrin, beta 1",W67174,2.1
same,"Ratio Peptide:Unstimulated, MAP kinase-activated protein kinase 3","W68281, listed as ID 2",2.1 and 2.13
same,"Ratio Peptide:Unstimulated, MAP kinase kinase 5",W69649,3.0
same,"Ratio Peptide:Unstimulated, TNF receptor superfamily, member 12",W71984,0.59
same,"Ratio Peptide:Unstimulated, killer cell lectin-like receptor subfamily C, member 3",W93370,3.2
same,"Ratio Peptide:Unstimulated, Mouse Mammary Turmor Virus Receptor homolog",W93891,6.9
same,Ratio Peptide:Unstimulated,"integrin, alpha 2 (CD49B) (AA463257)",0.89
same,Ratio Peptide:Unstimulated,"integrin, alpha 3 (antigen CD49C) (AA424695)",0.79
same,Ratio Peptide:Unstimulated,"integrin, alpha E (AA425451)",179.33
same,Ratio Peptide:Unstimulated,"integrin, beta 4 (AA485668)",0.79
same,Ratio Peptide:Unstimulated,"small inducible cytokine subfamily A, member 21 (AI922341)",3.88
